Results reported in paper PMC6792352, “Limited Chemical Structural Diversity Found to Modulate Thyroid Hormone Receptor in the Tox21 Chemical Library” (Environmental Health Perspectives, 2019).
Structures can show the parent of a compound that is named as a salt.

Experiment: in vitro
Conditions: rat, gh3-tre-luc cells

| Compound | CC50 at 24 h (AC50 (uM) modified / 1000) | further results |
| --- | --- | --- |
| CCCCOCCOP(=O)(OCCOCCCC)OCCOCCCC [Tris(2-butoxyethyl) phosphate] |  | CC50 at 24 h (AC50 (uM) modified / 1000, Tox21_110001=Tox21_201593, viability, 1 nM T3 present, 24 h): > 90 µM; CC50 at 24 h (AC50 (uM) modified / 1000, Tox21_110001=Tox21_302891, viability, 1 nM T3 present, 24 h): 58.5 µM |
| OCCN1CCN(CC/C=C2/c3ccccc3Sc3ccc(C(F)(F)F)cc32)CC1 [cis-Flupentixol] | 12.1 µM |  |
| Cc1nc(-c2ccc(OCC(C)C)c(C#N)c2)sc1C(=O)O [Febuxostat] | > 50 µM |  |
| C[C@@H]1C[C@H]2[C@@H]3C[C@H](F)C4=CC(=O)C=C[C@]4(C)[C@@]3(F)[C@@H](O)C[C@]2(C)[C@@]1(O)C(=O)COC(=O)C(C)(C)C [Flumethasone pivalate] | > 50 µM |  |
| O=Cc1ccc(Cl)c([N+](=O)[O-])c1 [4-Chloro-3-nitrobenzaldehyde] | > 90 µM |  |
| CN(C)CCCN(C)CCCN(C)C [2,6,10-Trimethyl-2,6,10-triazaundecane] | > 90 µM |  |
| CC1=NN(c2cc(S(=O)(=O)O)ccc2Cl)C(=O)C1N=Nc1ccccc1 (stereo not drawn) [C.I. Acid Yellow 34, monosodium salt] | 92.1 µM |  |
| CCOC(=O)COc1ccc2c(c1)C[C@@H](NC[C@H](O)c1cccc(Cl)c1)CC2 [SR58611] | 24.3 µM |  |
| CC(=O)Nc1c(I)c(C(=O)O)c(I)c(N(C)C(C)=O)c1I [Metrizoate sodium] | > 50 µM |  |
| CC(=O)CCc1ccccc1 [Benzylacetone] | > 90 µM |  |
| NC(=O)Nc1ccc(Cl)c(Cl)c1 [3,4-Dichlorophenylurea] | > 90 µM |  |
| CCOC(=O)C1(c2ccccc2)CCCN(C)CC1 (stereo not drawn) [Ethoheptazine hydrochloride] |  | CC50 at 24 h (AC50 (uM) modified / 1000, Tox21_110001=Tox21_113227, viability, 1 nM T3 present, 24 h): > 50 µM |
| ClCCCCCCCl [1,6-Dichlorohexane] |  | CC50 at 24 h (AC50 (uM) modified / 1000, Tox21_110001=Tox21_302121, viability, 1 nM T3 present, 24 h): > 90 µM |
| Cc1cc2nc3c(=O)[nH]c(=O)nc-3n(C[C@H](O)[C@H](O)[C@H](O)COP(=O)(O)OP(=O)(O)OC[C@H]3O[C@@H](n4cnc5c(N)ncnc54)[C@H](O)[C@@H]3O)c2cc1C [Flavin adenine dinucleotide disodium] | > 50 µM |  |
| CCOc1ccc([N+](=O)[O-])cc1 [1-Ethoxy-4-nitrobenzene] | 39.1 µM |  |
| CC(C)c1ccc(C(=O)NC(=N)N)cc1S(C)(=O)=O [Cariporide mesylate] | > 70 µM |  |

| Compound | CC50 at 24 h (AC50 (uM) modified / 1000) | further results |
| --- | --- | --- |
| Cc1nc(NS(=O)(=O)c2ccc(N)cc2)nc(C)c1Br [Sulfabromomethazine] | > 50 µM |  |
| CC(C)OC(=O)c1ccccc1C(=O)OC(C)C [Diisopropyl phthalate] | > 90 µM |  |
| OCCc1ccccc1 [2-Phenylethanol] | > 50 µM |  |
| CC(C)CN(C[C@@H](OP(=O)(O)O)[C@H](Cc1ccccc1)NC(=O)O[C@H]1CCOC1)S(=O)(=O)c1ccc(N)cc1 [Fosamprenavir calcium] | > 50 µM |  |
| O=[N+]([O-])c1ccc(NCCO)c(OCCO)c1 [HC Yellow 4] | 58.6 µM |  |
| CC(=O)Nc1cc(S(=O)(=O)O)cc2cc(S(=O)(=O)O)c(N=Nc3ccccc3)c(O)c12 [C.I. Acid Red 1] | 53.1 µM |  |
| CCCCc1ccc(Cl)cc1 [4-Butylchlorobenzene] | > 90 µM |  |
| Cc1ccc(O)c(-n2nc3ccccc3n2)c1 [2-(2H-Benzotriazol-2-yl)-4-methylphenol] | > 90 µM |  |
| C#C[C@]1(O)CC[C@H]2[C@@H]3CCc4cc(OC5CCCC5)ccc4[C@H]3CC[C@@]21C [Quinestrol] | 16 µM |  |
| Cc1ccc(N)c(S(=O)(=O)O)c1 [2-Amino-5-methylbenzenesulfonic acid] | > 90 µM |  |
| CC(=O)Oc1cccc(C(=O)O)c1OC(C)=O [Dipyrocetyl] | > 50 µM |  |
| CN1CCC(CN2c3ccccc3Sc3ccccc32)C1 (stereo not drawn) [Methdilazine hydrochloride] | 8.75 µM |  |
| CCCCC(=O)OCC(=O)[C@]1(O)Cc2c(O)c3c(c(O)c2[C@@H](O[C@H]2C[C@H](NC(=O)C(F)(F)F)[C@H](O)[C@H](C)O2)C1)C(=O)c1c(OC)cccc1C3=O [Valrubicin] | 8.11 µM |  |
| CCCCCCCCN(C)CCCCCCCC [N-Methyldioctylamine] | > 90 µM |  |
| CC(C)c1ccc(O)c(C(C)C)c1 [2,4-Diisopropylphenol] | > 90 µM |  |
| COc1cc(NS(=O)(=O)c2ccc(N)cc2)ncn1 [Sulfamonomethoxine] | > 20 µM |  |
